# Source: patent US20240393292A1, “ALLERGY ANTIGEN AND EPITOPE THEREOF” (HOYU CO., LTD., priority 2019, published 2024)
# Test system: IgE antibodies from patients
# Assay: Wheat epitope mapping (2): overlapping 10-amino-acid peptide fragments shifted by one amino acid;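 for Rank of partial sequence as epitope binding to IgE antibody: key = sequence deemed particularly important within the common 15-residue sequence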;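 for epitope sequence binding to IgE antibody, rank (Key/Preferably/More preferably): key of grades: preferably = shorter partial sequence still acting as epitope; more preferably = sequence improving IgE binding; key = particularly important sequence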
# Format: binding, human
# Conditions: for Rank of partial sequence as epitope binding to IgE antibody: sequence without X
# How it was run: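 Residual binding was banded as <30% none, 30–<50% poor, 50–<70% somewhat poor and ≥70% retained, relative to the parent overlapping sequence set to 100%. Values were chemiluminescent IgE signals from patient sera after subtracting secondary-antibody-only controls. The peptides were spot-synthesised 10-mers shifted by one amino acid.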
# [1] = serum of patient P50 (child, general immediate type allergy to wheat)
# [2] = serum of patient P51 (child, general immediate type allergy to wheat)
# [3] = serum of patient P52 (child, general immediate type allergy to wheat)
# [4] = serum of patient P56 (child, general immediate type allergy to wheat)
# [5] = serum of patient P57 (child, general immediate type allergy to wheat)
# [6] = serum of patient G1 (adult, general immediate type allergy to wheat)
# [7] = serum of patient G4 (adult, general immediate type allergy to wheat)
# [8] = serum of patient G5 (adult, general immediate type allergy to wheat)
# [9] = serum of patient G7 (adult, general immediate type allergy to wheat)
# [10] = serum of patient P55 (child, general immediate type allergy to wheat)
# [11] = serum of patient G2 (adult, general immediate type allergy to wheat)
substance,measurement,setting,value
1703 (EAANFT; REGION 1..6: note = epitope) [compound 1703],Rank of partial sequence as epitope binding to IgE antibody,serum of patient P27 (WDEIA),Key
1704 (EAANFT; REGION 1..6: note = epitope) [compound 1704],Rank of partial sequence as epitope binding to IgE antibody,serum of patient P28 (WDEIA),Key
1706 (EAANFT; REGION 1..6: note = epitope) [compound 1706],Rank of partial sequence as epitope binding to IgE antibody,serum of patient P29 (WDEIA),Key
1707 (SQVIIM; REGION 1..6: note = epitope) [compound 1707],Rank of partial sequence as epitope binding to IgE antibody,serum of patient P29 (WDEIA),Key
1710 (KEAANFTS; REGION 1..8: note = epitope) [compound 1710],"epitope sequence binding to IgE antibody, rank (Key/Preferably/More preferably)",serum of patient P34 (WDEIA),More preferably
1711 (KEAANFT; REGION 1..7: note = epitope) [compound 1711],"epitope sequence binding to IgE antibody, rank (Key/Preferably/More preferably)",serum of patient P34 (WDEIA),Preferably
1712 (EAANF; REGION 1..5: note = epitope) [compound 1712],"epitope sequence binding to IgE antibody, rank (Key/Preferably/More preferably)",serum of patient P34 (WDEIA),Key
1714 (KEAANF; REGION 1..6: note = epitope) [compound 1714],"epitope sequence binding to IgE antibody, rank (Key/Preferably/More preferably)",serum of patient P35 (WDEIA),Preferably
1715 (KEAA; REGION 1..4: note = epitope) [compound 1715],"epitope sequence binding to IgE antibody, rank (Key/Preferably/More preferably)",serum of patient P35 (WDEIA),Key
1716 (SQVIIM; REGION 1..6: note = epitope) [compound 1716],"epitope sequence binding to IgE antibody, rank (Key/Preferably/More preferably)",serum of patient P35 (WDEIA),Key
1718 (EAANFT; REGION 1..6: note = epitope) [compound 1718],"epitope sequence binding to IgE antibody, rank (Key/Preferably/More preferably)",serum of patient P36 (WDEIA),More preferably
1719 (EAANF; REGION 1..5: note = epitope) [compound 1719],"epitope sequence binding to IgE antibody, rank (Key/Preferably/More preferably)",serum of patient P36 (WDEIA),Preferably
1722 (KEAANFT; REGION 1..7: note = epitope) [compound 1722],"epitope sequence binding to IgE antibody, rank (Key/Preferably/More preferably)",[1],Preferably
1723 (KEAANF; REGION 1..6: note = epitope) [compound 1723],"epitope sequence binding to IgE antibody, rank (Key/Preferably/More preferably)",[1],Key
1726 (KEAANFTS; REGION 1..8: note = epitope) [compound 1726],"epitope sequence binding to IgE antibody, rank (Key/Preferably/More preferably)",[2],Preferably
1727 (KEAANF; REGION 1..6: note = epitope) [compound 1727],"epitope sequence binding to IgE antibody, rank (Key/Preferably/More preferably)",[2],Key
1728 (KEAANF; REGION 1..6: note = epitope) [compound 1728],"epitope sequence binding to IgE antibody, rank (Key/Preferably/More preferably)",[3],Key
1729 (ANFTSQVIIM; REGION 1..10: note = epitope) [compound 1729],"epitope sequence binding to IgE antibody, rank (Key/Preferably/More preferably)",[3],Preferably
1730 (SQVIIM; REGION 1..6: note = epitope) [compound 1730],"epitope sequence binding to IgE antibody, rank (Key/Preferably/More preferably)",[3],Key
1732 (KEAA; REGION 1..4: note = epitope) [compound 1732],"epitope sequence binding to IgE antibody, rank (Key/Preferably/More preferably)","serum of patient P53 (child, general immediate type allergy to wheat)",Key
1734 (KEAANFT; REGION 1..7: note = epitope) [compound 1734],"epitope sequence binding to IgE antibody, rank (Key/Preferably/More preferably)",[4],Preferably
1735 (EAANFT; REGION 1..6: note = epitope) [compound 1735],"epitope sequence binding to IgE antibody, rank (Key/Preferably/More preferably)",[4],Key
1737 (KEAANFT; REGION 1..7: note = epitope) [compound 1737],"epitope sequence binding to IgE antibody, rank (Key/Preferably/More preferably)",[5],Preferably
1738 (EAANF; REGION 1..5: note = epitope) [compound 1738],"epitope sequence binding to IgE antibody, rank (Key/Preferably/More preferably)",[5],Key
1739 (KEAANFT; REGION 1..7: note = epitope) [compound 1739],"epitope sequence binding to IgE antibody, rank (Key/Preferably/More preferably)",[6],Preferably
1740 (KEAANF; REGION 1..6: note = epitope) [compound 1740],"epitope sequence binding to IgE antibody, rank (Key/Preferably/More preferably)",[6],Key
1741 (SQVIIM; REGION 1..6: note = epitope) [compound 1741],"epitope sequence binding to IgE antibody, rank (Key/Preferably/More preferably)",[6],Key
1742 (KEAAN; REGION 1..5: note = epitope) [compound 1742],"epitope sequence binding to IgE antibody, rank (Key/Preferably/More preferably)",[7],Preferably
1743 (EAAN; REGION 1..4: note = epitope) [compound 1743],"epitope sequence binding to IgE antibody, rank (Key/Preferably/More preferably)",[7],Key
1746 (EAANFTS; REGION 1..7: note = epitope) [compound 1746],"epitope sequence binding to IgE antibody, rank (Key/Preferably/More preferably)",[8],Preferably
1747 (EAANFT; REGION 1..6: note = epitope) [compound 1747],"epitope sequence binding to IgE antibody, rank (Key/Preferably/More preferably)",[8],Key
1749 (EAANFT; REGION 1..6: note = epitope) [compound 1749],"epitope sequence binding to IgE antibody, rank (Key/Preferably/More preferably)","serum of patient G6 (adult, general immediate type allergy to wheat)",Key
1750 (KEAANFT; REGION 1..7: note = epitope) [compound 1750],"epitope sequence binding to IgE antibody, rank (Key/Preferably/More preferably)",[9],Key
1751 (SQVIIM; REGION 1..6: note = epitope) [compound 1751],"epitope sequence binding to IgE antibody, rank (Key/Preferably/More preferably)",[9],Key
1752 (ANFTSQVIIM; REGION 1..10: note = epitope) [compound 1752],"epitope sequence binding to IgE antibody, rank (Key/Preferably/More preferably)","serum of patient G8 (adult, general immediate type allergy to wheat)",Key
1755 (YLKK; REGION 1..4: note = epitope) [compound 1755],"epitope sequence binding to IgE antibody, rank (Key/Preferably/More preferably)",serum of patient P7 (WDEIA),Key
1756 (VSSYLKK; REGION 1..7: note = epitope) [compound 1756],"epitope sequence binding to IgE antibody, rank (Key/Preferably/More preferably)",serum of patient P8 (WDEIA),Key
1757 (KVGYNP; REGION 1..6: note = epitope) [compound 1757],"epitope sequence binding to IgE antibody, rank (Key/Preferably/More preferably)",serum of patient P8 (WDEIA),Key
1758 (YLKK; REGION 1..4: note = epitope) [compound 1758],"epitope sequence binding to IgE antibody, rank (Key/Preferably/More preferably)",serum of patient P14 (WDEIA),Key
1759 (YLKK; REGION 1..4: note = epitope) [compound 1759],"epitope sequence binding to IgE antibody, rank (Key/Preferably/More preferably)",serum of patient P17 (WDEIA),Key
1760 (EVSSYLKKV; REGION 1..9: note = epitope) [compound 1760],"epitope sequence binding to IgE antibody, rank (Key/Preferably/More preferably)",serum of patient P18 (WDEIA),Key
1761 (YLKKVGYN; REGION 1..8: note = epitope) [compound 1761],"epitope sequence binding to IgE antibody, rank (Key/Preferably/More preferably)",serum of patient P18 (WDEIA),Key
1762 (KEVSSYLKK; REGION 1..9: note = epitope) [compound 1762],"epitope sequence binding to IgE antibody, rank (Key/Preferably/More preferably)",serum of patient P27 (WDEIA),Key
1763 (LKKVGYN; REGION 1..7: note = epitope) [compound 1763],"epitope sequence binding to IgE antibody, rank (Key/Preferably/More preferably)",serum of patient P27 (WDEIA),Key
1764 (KEVSSYLKKV; REGION 1..10: note = epitope) [compound 1764],"epitope sequence binding to IgE antibody, rank (Key/Preferably/More preferably)",serum of patient P30 (WDEIA),Key
1765 (YLKKVGYN; REGION 1..8: note = epitope) [compound 1765],"epitope sequence binding to IgE antibody, rank (Key/Preferably/More preferably)",serum of patient P30 (WDEIA),Key
1767 (KKVGYNP; REGION 1..7: note = epitope) [compound 1767],"epitope sequence binding to IgE antibody, rank (Key/Preferably/More preferably)",serum of patient P33 (WDEIA),Key
1768 (VSSYLKK; REGION 1..7: note = epitope) [compound 1768],"epitope sequence binding to IgE antibody, rank (Key/Preferably/More preferably)",serum of patient P35 (WDEIA),Key
1769 (KVGYNP; REGION 1..6: note = epitope) [compound 1769],"epitope sequence binding to IgE antibody, rank (Key/Preferably/More preferably)",serum of patient P35 (WDEIA),Key
1770 (VSSYLKK; REGION 1..7: note = epitope) [compound 1770],"epitope sequence binding to IgE antibody, rank (Key/Preferably/More preferably)",[1],Key
1771 (KVGYNP; REGION 1..6: note = epitope) [compound 1771],"epitope sequence binding to IgE antibody, rank (Key/Preferably/More preferably)",[1],Key
1773 (EVSSYLKK; REGION 1..8: note = epitope) [compound 1773],"epitope sequence binding to IgE antibody, rank (Key/Preferably/More preferably)",[10],Key
1774 (YLKKVGYNP; REGION 1..9: note = epitope) [compound 1774],"epitope sequence binding to IgE antibody, rank (Key/Preferably/More preferably)",[10],Preferably
1775 (LKKVGYN; REGION 1..7: note = epitope) [compound 1775],"epitope sequence binding to IgE antibody, rank (Key/Preferably/More preferably)",[10],Key
1777 (KEVSSYLKK; REGION 1..9: note = epitope) [compound 1777],"epitope sequence binding to IgE antibody, rank (Key/Preferably/More preferably)",[11],Key
1778 (KVGY; REGION 1..4: note = epitope) [compound 1778],"epitope sequence binding to IgE antibody, rank (Key/Preferably/More preferably)",[11],Key
1780 (YLKKVG; REGION 1..6: note = epitope) [compound 1780],"epitope sequence binding to IgE antibody, rank (Key/Preferably/More preferably)","serum of patient G3 (adult, general immediate type allergy to wheat)",Key
1781 (KEVSSYLKKV; REGION 1..10: note = epitope) [compound 1781],"epitope sequence binding to IgE antibody, rank (Key/Preferably/More preferably)",[7],Key
1782 (VSSYLKKVGY; REGION 1..10: note = epitope) [compound 1782],"epitope sequence binding to IgE antibody, rank (Key/Preferably/More preferably)",[7],Key
1783 (KVGYNP; REGION 1..6: note = epitope) [compound 1783],"epitope sequence binding to IgE antibody, rank (Key/Preferably/More preferably)",[7],Key
1784 (LKKVGYNP; REGION 1..8: note = epitope) [compound 1784],"epitope sequence binding to IgE antibody, rank (Key/Preferably/More preferably)",[8],Key
